From patent US20160082133A1, “CHEMICAL EXCHANGE SATURATION TRANSFER (CEST) BASED MRI USING REPORTER GENES AND SUBSTRATES AND METHODS THEREOF” (The Johns Hopkins University, priority 2013, published 2016)
“Also recorded” adds a separate entry of the source.

Tests used:
[1] = In vitro CEST-MRI of thymidine analogues at 11.7 T; assay type: physicochemical; details: pH 7.4, 37° C.
Procedure: All compounds were dissolved at a concentration of 20 mM in phosphate-buffered saline (PBS) (pH=7.4) and placed in microcapillaries, as described previously.^17 CESTMRI experiments were performed on a vertical 11.7 T scanner (Bruker Avance system) at 37° C. A modified RARE sequence (TR/TE=10 000/9.4 ms; RARE factor=16; 1 mm slice thickness; FOV=11×11 mm^2; matrix size=64×32; resolution=0.17×0.34 mm^2; and NA=2) including a magnetization transfer (MT) module ([…]) was used to acquire CEST-weighted images from −8 to +8 ppm with increments of 0.2 ppm around the water resonance, which was assigned to be at 0 ppm. Pixel-based B0 correction was used as described before using the same parameters as above except for TR=1500 ms and B1/tsat=21 Hz/500 ms, with a sweep range from −2 to +2 ppm (0.1 ppm steps). Data processing was performed using custom-written scripts in MATLAB (Mathworks). Mean CEST spectra were plotted from an ROI for each sample, after B0 correction. MTRasym=100×(S^−Aω−S^AωA/^‘−’0)/3 was computed at different offsets Aω.

[2] = Quantification of exchange rates (QUESP, Bloch equation fitting); assay type: physicochemical; details: 11.7 T, pH 7.4, 37° C.
Procedure: Exchange rates were quantified with the saturation power dependent CEST approach (QUESP) and Bloch equation fitting (McMahon et al., Magn. Res. Med. 2006, 55, 836). For each sample, the MTRasym was measured at the imino resonance frequency for CEST saturation fields of 43, 85, 128, 170, 213, 255, 340, and 426 Hz while the saturation pulse duration was kept constant at 4000 ms. The Bloch equations were then fit numerically to these MTRasym values using MATLAB (Mathworks), and the exchange rates (kex, s^−1) were determined from the fits. Errors (95% confidence limits) were estimated using the F statistic.

293^HSV1-tk cells = assay: Cell viability assay (CellTiter-Blue); assay type: cell-based, human; details: 0.5 mg/ml, 4 and 24 hours
Procedure: Cell viability assay was performed using CellTiter-Blue® Cell Viability Assay (Promega), which provides a fluorometric method for estimating the number of viable cells present in 96 well plate. HEK293FT cells transduced with the HSV1-tk (293^HSV1-tk) were plated in 96 well-plate (10,000 cells/well). Cells were incubated for a periods of 4 hours and 24 hours in the presence of ganciclovir (GCV, 0.5 mg/ml in cell medium), compound 2 (0.5 mg/ml in cell medium) and medium (as control). CellTiter-Blue® Reagent was added (20 μl/well) and plate was incubated for 3 hours at 37° C. Finally, fluorescence 560/590 nm was recorded and values obtained from probe containing wells (GCV or 2, N=4) were normalized to values of non-treated cells (control wells) to determine the % of viable cells after the incubation period.

HSV1-TK over m-TK = assay: Kinase assay with HEK-293FT cell extracts (293^HSV1-tk vs 293^wt); assay type: biochemical; details: 5 μM substrate, 2 μL cell extract; specificity HSV1-TK over m-TK
Procedure: In a solid white 96-well plate, 5 μM substrate (dT, compounds 1, 2, or 3; N=4 for each substrate) and 20 μM ATP were dissolved in 48 μL of kinase reaction buffer (40 mM Tris; pH=7.5, 20 mM MgCl2, and 0.1 mg/mL BSA) followed by the addition of 2 μL of purified HSV1-TK to initiate the kinase reaction. Eight wells without substrate were included as the control reference. The plate was incubated at room temperature for 2 h, after which 50 μL of Kinase-Glo luciferase reagent (Kinase-Glo max luminescent kinase assay, Promega Inc.) was added. After […], the resulting luminescence values were recorded and used to quantify the residual ATP in the reaction. The relative phosphorylation (%) was then defined as the luminescence signal obtained after the enzymatic reaction (substrate+HSV1-TK+ATP) relative to the signal obtained from wells without substrate (HSV1-TK+ATP). For a phosphorylation assay performed on HEK-293FT lysates, 2 μL of cell extract (either ^293HSV1-tk or 293^wt cells) was used instead of purified HSV1-TK, and the assay was performed using 1 or 2 as the substrate according to the procedure described above.

9L^HSV1-tk cells = assay: In vitro detection of accumulation with MR spectroscopy; assay type: cell-based, rat; details: 9L^HSV1-tk cells incubated 3.5 h
Procedure: At least two distinctive peaks, typical to 2, appear in the spectra of the pure compound (black), a singlet at 1.22 ppm (6H of the 2 Methyls) and a triplet at 6.29 ppm (1H, the proton on 1′ carbon of the sugar). Both peaks appear in the lysate of cells incubated with the compound (red spectra) but not in the control (blue spectra). The samples were prepared using dual-phase extraction for simultaneous extraction of cellular lipids and water-soluble metabolite. Twenty five million cells (9L^HSV1-tk) were incubated with or without 2 for 3.5 h. After dual-phase extraction and lyophilizing of the water from the water-soluble fraction, the soluble intracellular contents were dissolved in D2O for the ^1H-NMR experiments. Fully relaxed ^1H-NMR spectra of the extracts were acquired on a Bruker 500 MHz scanner. The signal integrals of the typical functional groups of 2 (methyl groups —(CH3)2 at 1.22 ppm and of the CH on the C-1′ position of the sugar moiety at 6.29 ppm) and of the standard TSP (0 ppm) were determined. Then, the mM intracellular concentration of 2 was calculated as shown previously (Glunde, K. et al., Cancer Res 2005, 65, 11034) and found to be 0.37 mM.

[3] = at 5 ppm for 20 nM agent (so in the source)

Question: With `CC1(C)CN([C@H]2C[C@H](O)[C@@H](CO)O2)C(=O)NC1=O` [Compound 2, 5-Methyl-5,6-dihydrothymidine] as the compound, how does the “MTRasym (8.5 Hz)” value [1, 3] read?
Answer: Its value is 4%.

Question: What about the “MTRasym (170 Hz)” value [1, 3] of the same compound?
Answer: Its value is 16%.

Question: What about the “MTRasym (213 Hz)” value [1, 3] of the same compound?
Answer: Its value is 21%.

Question: And the “MTRasym (128 Hz)” value ([1]; at 5 ppm for 20 mM agent)?
Answer: The value was 10%.

Question: And the “kex of the imino proton” value [2]?
Answer: The value was 1.7±0.3×10^3 s^−1.

Question: What about the “kex, quantified exchange rates of imino and water protons” value ([2]; 5 ppm for 1-3, 6 ppm for dT) of the same compound?
Answer: Its value is 1.7 ± 0.3 ×10^3 s^−1.

Question: What about the “toxic effect on 293^HSV1-tk cells” value (293^HSV1-tk cells) of the same compound?
Answer: The value was “did not show any toxic effect; also recorded: no toxic effect”.

Question: What about the “increase in phosphorylation with respect to control extract (293^wt), factor relative to that of 1” value (HSV1-TK over m-TK) of the same compound?
Answer: The value was “about 10”.

Question: And the “intracellular concentration by 1H-NMR” value (9L^HSV1-tk cells)?
Answer: Its value is 0.37 mM.
